{"source": "patent US6287834A", "about": "“Characterization and use of an isolated uridine diphospho-glucuronosyltransferase” (Endorecherche, Inc., priority 1999, dated 2001)", "key": {"UGT2B17 [1]": {"target": "T1, UGT2B17 (Homo sapiens, UniProt O75795)", "T1 construct": "cell homogenate", "T1 sequence (O75795 24-530)": "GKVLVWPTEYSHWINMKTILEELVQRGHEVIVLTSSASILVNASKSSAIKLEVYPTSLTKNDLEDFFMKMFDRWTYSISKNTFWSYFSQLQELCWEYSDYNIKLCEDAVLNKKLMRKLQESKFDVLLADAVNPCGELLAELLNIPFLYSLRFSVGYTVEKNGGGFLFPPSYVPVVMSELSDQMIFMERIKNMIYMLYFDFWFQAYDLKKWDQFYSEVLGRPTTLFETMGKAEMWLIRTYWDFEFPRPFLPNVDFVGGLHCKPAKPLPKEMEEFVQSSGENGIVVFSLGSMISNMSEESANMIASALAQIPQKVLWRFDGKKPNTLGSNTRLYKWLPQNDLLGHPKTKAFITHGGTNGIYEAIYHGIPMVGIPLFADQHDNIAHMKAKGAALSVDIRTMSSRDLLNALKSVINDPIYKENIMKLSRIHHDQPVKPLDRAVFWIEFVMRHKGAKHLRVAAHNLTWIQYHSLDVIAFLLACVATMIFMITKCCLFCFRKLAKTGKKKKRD", "experiment": "Second glucuronidation assay to determine the amount of enzyme activity (glucuronide formation)", "assay_type": "biochemical", "settings": "for Glucuronide Formation (pmol/min/mg protein): HK293-UGT2B17 cell homogenate, 6 μM [14C]UDPGA and 494 μM unlabelled UDPGA, 15 minutes at 30° C.; for identified as major endogenous substrates of UGT2B17: 3α and 17β hydroxyandrogens", "description": "Stable Expression of UGT2B17. Human kidney 293 cells were grown in Dubelcco's modified Eagle's medium containing 4.5 g/l glucose, 10 mM HEPES, 110 μg/ml sodium pyruvate, 100 IU of penicillin/ml, 100 μg/ml of streptomycin and 10% fetal bovine serum (FBS) in a humidified incubator, with an atmosphere of 5% CO2, at 37° C. 5 μg of pBK-CMV-UGT2B17 was used to transfect HK293 cells using Lipofectin and following the manufacturer's instructions (Gibco BRL: Burlington, Canada). Forty-eight hours after transfection, stable transfectants were selected in a media containing 800 μg/ml G418.\nGlucuronidation Assay Using Cell Homogenates. HK293 cells expressing UGT2B17 were suspended in a Tris buffered saline containing 0.5 mM DTT and were homogenized using a Brinkman polytron. Enzyme assays were performed using [^14 C] UDP-glucuronic acid ([…]), 500 μM of the various aglycones and 150 μg of protein from cell homogenates in 50 mM Tris-HCl (pH 7.5), 10 mM MgCl2, 100 μg/ml phosphatidylcholine and 8.5 mM saccharolactone in a final volume of 100 μl. The enzyme assays were terminated by adding 100 μl of methanol, and the tubes were centrifuged at 14,000 g for 1 minute to remove the precipitated proteins. 100 μl of the aqueous phase was applied onto thin layer chromatography (TLC) plates (0.25 mm thick silica gel, 60 F254 S) (EM Science, Gibbstown, N.J.) and then was chromatographed in a solvent of toluene:methanol:acetic acid in the proportion of 7:3:1. The TLC plates were exposed for four days and the extent of glucuronidation was measured by Phosphorimager (Molecular Dynamics).\nIn the second assay, the substrate was exposed to […]"}, "UGT2B17 [2]": {"target": "T1, UGT2B17", "experiment": "Kinetic analysis of UGT2B17 specificity (Lineweaver-Burk plots, FIGS. 4A and 4B)", "assay_type": "biochemical", "description": "to FIGS. 4A and 4B are Lineweaver-Burk plots of ADT and DHT, and 3α-DIOL and testosterone (TESTO), respectively; and\nA kinetic analysis was also performed to further characterize the specificity of UGT2B17 for ADT, DHT, 3α-DIOL and testosterone."}, "[3]": {"substrate": "O=C(O)[C@H]1O[C@H](OP(=O)(O)OP(=O)(O)OC[C@H]2O[C@@H](n3ccc(=O)[nH]c3=O)[C@H](O)[C@@H]2O)[C@H](O)[C@@H](O)[C@@H]1O", "experiment": "cells, lysate or membranes", "settings": "other: 30° C., reaction linear for 30 minutes, pH 7.5"}, "[4]": {"system": "androgen response element reporter in LNCaP cells", "experiment": "Androgen response element reporter construct in LNCaP cells transfected with UGT2B17", "assay_type": "cell-based, human", "description": "Reducing androgen activity with UGT2B17. LNCaP cells were transfected with UGT2B17 in the presence of a reporter construct controlled by an androgen response element so as the expression of the reporter gene is indicative of androgenic activity."}}}
{"molecule": "C[C@]12CC[C@@H](O)C[C@@H]1CC[C@@H]1[C@@H]2[C@H](O)C[C@]2(C)[C@@H](O)CC[C@@H]12", "note": "[5α-Androstane-3α,11α,17β-triol]", "values": [{"measurement": "Glucuronide Formation (pmol/min/mg protein)", "setting": "UGT2B17 [1]", "value": 5, "unit": "pmol/min/mg protein"}]}
{"molecule": "C[C@]12CC[C@@H](O)C[C@@H]1CC[C@@H]1[C@@H]2[C@@H](O)C[C@]2(C)[C@@H](O)CC[C@@H]12", "note": "[5α-Androstane-3α,11β,17β-triol]", "values": [{"measurement": "Glucuronide Formation (pmol/min/mg protein)", "setting": "UGT2B17 [1]", "value": 8, "unit": "pmol/min/mg protein"}]}
{"molecule": "C[C@]12CC[C@@H](O)C[C@@H]1CC[C@@H]1[C@@H]2CC[C@]2(C)[C@@H](O)CC[C@@H]12", "note": "[5α-Androstane-3α,17β-diol]", "values": [{"measurement": "identified as major endogenous substrates of UGT2B17", "setting": "UGT2B17 [1]", "value": "major endogenous substrates"}, {"measurement": "Glucuronide Formation (pmol/min/mg protein)", "setting": "UGT2B17 [1]", "value": 15, "unit": "pmol/min/mg protein"}, {"measurement": "affinity of the enzyme based on Km values", "setting": "UGT2B17 [2]", "value": "similar"}]}
{"molecule": "C[C@]12CC[C@H](O)C[C@@H]1CC[C@@H]1[C@@H]2CC[C@]2(C)[C@@H](O)CC[C@@H]12", "note": "[5α-Androstane-3β,17β-diol]", "values": [{"measurement": "identified as major endogenous substrates of UGT2B17", "setting": "UGT2B17 [1]", "value": "major endogenous substrates"}]}
{"molecule": "C[C@H](O)[C@H]1CC[C@H]2[C@@H]3CC[C@H]4C[C@H](O)CC[C@]4(C)[C@H]3CC[C@]12C", "note": "[5α-pregnane-3α,20α-diol]", "values": [{"measurement": "Glucuronide Formation (pmol/min/mg protein)", "setting": "UGT2B17 [1]", "value": 8, "unit": "pmol/min/mg protein"}]}
{"molecule": "C[C@]12CC[C@@H](O)C[C@H]1CC[C@@H]1[C@@H]2CC[C@]2(C)[C@@H](O)[C@H](O)C[C@@H]12", "note": "[5β-Androstane-3α,16α,17β-triol]", "values": [{"measurement": "Glucuronide Formation (pmol/min/mg protein)", "setting": "UGT2B17 [1]", "value": 11, "unit": "pmol/min/mg protein"}]}
{"molecule": "C[C@]12CC[C@@H](O)C[C@H]1CC[C@@H]1[C@@H]2CC[C@]2(C)[C@@H](O)CC[C@@H]12", "note": "[5β-Androstane-3α,17β-diol]", "values": [{"measurement": "Glucuronide Formation (pmol/min/mg protein)", "setting": "UGT2B17 [1]", "value": 14, "unit": "pmol/min/mg protein"}]}
{"molecule": "C[C@]12CC[C@H]3[C@@H](CC=C4C[C@@H](O)CC[C@@]43C)[C@@H]1CC[C@@H]2O", "note": "[Androst-5-ene-3β,17β-diol]", "values": [{"measurement": "identified as major endogenous substrates of UGT2B17", "setting": "UGT2B17 [1]", "value": "major endogenous substrates"}]}
{"molecule": "C[C@]12CC[C@@H](O)C[C@@H]1CC[C@@H]1[C@@H]2CC[C@]2(C)C(=O)CC[C@@H]12", "note": "[Androsterone]", "values": [{"measurement": "identified as major endogenous substrates of UGT2B17", "setting": "UGT2B17 [1]", "value": "major endogenous substrates"}, {"measurement": "Glucuronide Formation (pmol/min/mg protein)", "setting": "UGT2B17 [1]", "value": 5, "unit": "pmol/min/mg protein"}, {"measurement": "affinity of the enzyme based on Km values", "setting": "UGT2B17 [2]", "value": "similar"}]}
{"molecule": "C[C@]12CCC(=O)C[C@@H]1CC[C@@H]1[C@@H]2CC[C@]2(C)[C@@H](O)CC[C@@H]12", "note": "[Dihydrotestosterone]", "values": [{"measurement": "identified as major endogenous substrates of UGT2B17", "setting": "UGT2B17 [1]", "value": "major endogenous substrates"}, {"measurement": "Glucuronide Formation (pmol/min/mg protein)", "setting": "UGT2B17 [1]", "value": 14, "unit": "pmol/min/mg protein"}, {"measurement": "affinity of the enzyme based on Km values", "setting": "UGT2B17 [2]", "value": "similar"}]}
{"molecule": "C[C@]12CC[C@@H](O)C[C@H]1CC[C@@H]1[C@@H]2CC[C@]2(C)C(=O)CC[C@@H]12", "note": "[Etiocholanolone]", "values": [{"measurement": "Glucuronide Formation (pmol/min/mg protein)", "setting": "UGT2B17 [1]", "value": 13, "unit": "pmol/min/mg protein"}]}
{"molecule": "C=CCc1ccc(O)c(OC)c1", "note": "[Eugenol]", "values": [{"measurement": "Glucuronide Formation (pmol/min/mg protein)", "setting": "UGT2B17 [1]", "value": 38, "unit": "pmol/min/mg protein"}]}
{"molecule": "C[C@]12CC[C@H]3[C@@H](CCC4=CC(=O)CC[C@@]43C)[C@@H]1CC[C@@H]2O", "note": "[Testosterone]", "values": [{"measurement": "identified as major endogenous substrates of UGT2B17", "setting": "UGT2B17 [1]", "value": "major endogenous substrates"}, {"measurement": "Glucuronide Formation (pmol/min/mg protein)", "setting": "UGT2B17 [1]", "value": 9, "unit": "pmol/min/mg protein"}, {"measurement": "affinity of the enzyme based on Km values", "setting": "UGT2B17 [2]", "value": "similar"}]}
{"molecule": "Oc1cccc2ccccc12", "note": "[l-naphtol]", "values": [{"measurement": "Glucuronide Formation (pmol/min/mg protein)", "setting": "UGT2B17 [1]", "value": 7, "unit": "pmol/min/mg protein"}]}
{"molecule": "Oc1ccccc1-c1ccccc1O", "note": "[o,o' biphenyl]", "values": [{"measurement": "Glucuronide Formation (pmol/min/mg protein)", "setting": "UGT2B17 [1]", "value": 7, "unit": "pmol/min/mg protein"}]}
{"molecule": "Oc1ccc(-c2ccc(O)cc2)cc1", "note": "[p,p' biphenyl]", "values": [{"measurement": "Glucuronide Formation (pmol/min/mg protein)", "setting": "UGT2B17 [1]", "value": 5, "unit": "pmol/min/mg protein"}]}
{"molecule": "O=[N+]([O-])c1ccc(O)cc1", "note": "[p-nitrophenol]", "values": [{"measurement": "Glucuronide Formation (pmol/min/mg protein)", "setting": "UGT2B17 [1]", "value": 4, "unit": "pmol/min/mg protein"}]}
{"molecule": "UGT2B17 (Homo sapiens) (protein) GKVLVWPTEYSHWINMKTILEELVQRGHEVIVLTSSASILVNASKSSAIKLEVYPTSLTKNDLEDFFMKMFDRWTYSISKNTFWSYFSQLQELCWEYSDYNIKLCEDAVLNKKLMRKLQESKFDVLLADAVNPCGELLAELLNIPFLYSLRFSVGYTVEKNGGGFLFPPSYVPVVMSELSDQMIFMERIKNMIYMLYFDFWFQAYDLKKWDQFYSEVLGRPTTLFETMGKAEMWLIRTYWDFEFPRPFLPNVDFVGGLHCKPAKPLPKEMEEFVQSSGENGIVVFSLGSMISNMSEESANMIASALAQIPQKVLWRFDGKKPNTLGSNTRLYKWLPQNDLLGHPKTKAFITHGGTNGIYEAIYHGIPMVGIPLFADQHDNIAHMKAKGAALSVDIRTMSSRDLLNALKSVINDPIYKENIMKLSRIHHDQPVKPLDRAVFWIEFVMRHKGAKHLRVAAHNLTWIQYHSLDVIAFLLACVATMIFMITKCCLFCFRKLAKTGKKKKRD", "values": [{"measurement": "Km", "setting": "[3]", "value": 200, "unit": "µM"}]}
{"molecule": "uridine diphospho-glucuronosyltransferase 2B17 (protein) MSLKWMSVFLLMQLSCYFSSGSCGKVLVWPTEYSHWINMKTILEELVQRGHEVIVLTSSASILVNASKSSAIKLEVYPTSLTKNDLEDFFMKMFDRWTYSISKNTFWSYFSQLQELCWEYSDYNIKLCEDAVLNKKLMRKLQESKFDVLLADAVNPCGELLAELLNIPFLYSLRFSVGYTVEKNGGGFLFPPSYVPVVMSELSDQMIFMERIKNMIYMLYFDFWFQAYDLKKWDQFYSEVLGRPTTLFETMGKAEMWLIRTYWDFEFPRPFLPNVDFVGGLHCKPAKPLPKEMEEFVQSSGENGIVVFSLGSMISNMSEESANMIASALAQIPQKVLWRFDGKKPNTLGSNTRLYKWLPQNDLLGHPKTKAFITHGGTNGIYEAIYHGIPMVGIPLFADQHDNIAHMKAKGAALSVDIRTMSSRDLLNALKSVINDPIYKENIMKLSRIHHDQPVKPLDRAVFWIEFVMRHKGAKHLRVAAHNLTWIQYHSLDVIAFLLACVATMIFMITKCCLFCFRKLAKTGKKKKRD", "values": [{"measurement": "expression of the reporter gene (indicative of androgenic activity)", "setting": "[4]", "value": "decreased expression of the reporter gene"}]}
